Where “and” joins values, the source holds several entries; their conditions need not be identical. Identical values can stand only once. One block for each molecule: values may come before it.
Test system: 885512-296-R-J2-PDC complex spheroid viability
Test: Anticancer human tumor 885512-296-R-J2-PDC patient-derived breast carcinoma cell line growth inhibition [GQUAD]
Conditions: for viability, T/C: stronger effect = lower value
Source text: DNA G-quadruplex Stabilizer Agents in Combinations in Complex Spheroids
A high-throughput screen of multi-cell type tumor spheroids was designed to identify active combinations of DNA G-quadruplex stabilizer agents and targeted small molecules. Complex spheroids include a stromal component modeled by human endothelial cells (HUVEC) and fibroblasts modeled by human mesenchymal stem cells (MSCs). The concentration ranges selected for each drug and investigational agent were based upon clinically achievable concentrations if the clinical Cmax of the agent was known.
Compounds. The drugs and investigational agents: pidnarulex (CX-5461; NSC782164), APTO-253 (NSC789042), BRACO-19 (NSC847499), peposertib (NSC802822), ceralasertib (NSC780249), elimusertib (NSC800525), camonsertib (NSC841442), AZD-1390 (NSC803789), olaparib (NSC753686), talazoparib (NSC767125), ART-558 (NSC835418), sotorasib (NSC818433), MRTX-1133 (NSC836407), SN-38 (NSC673596), topotecan (NSC609699), etoposide (NSC141540), doxorubicin (NSC123127), gemcitabine (NSC613327), 5-fluorouracil (NSC19893), paclitaxel (NSC125973), vemurafenib (NSC761431), panobinostat (NSC761190), R-306465 (JNJ-16241199; NSC773264), adavosertib (NSC754352), TP-3654 (NSC805149), carboplatin (NSC241240), KSQ-4279 (NSC840948), and staurosporine (NSC755774) were obtained from the National Cancer Institute (NCI) Developmental Therapeutics Program Chemical Repository (34). The FDA-approved anticancer drug set is available from the NCI Developmental Therapeutics Program. […] The stock solutions were prepared in dimethyl sulfoxide (DMSO, Sigma-Aldrich, St. Louis, MO, cat. D2650) at 800-fold the tested concentration and stored at -70 degrees C prior to their use. All drugs and investigational agents were tested over a range starting from a high concentration at or near the clinical Cmax and decreasing in half-log increments. If the clinical Cmax for an agent had not been determined, the highest concentration tested was 10 microM.
2.3 Cell Culture. All cells were maintained in an incubator at 37 degrees C and 5% CO2 with 95% humidity. The PDC lines were cultured according to standard operating procedures established by the NCI PDMR. All PDCs were thawed and cultured in Matrigel-coated flasks prepared with a working solution of 1X Ham's F-12 nutrient mix, without supplementation (Invitrogen, cat. 11765054), 100 U/mL penicillin-streptomycin (Invitrogen, cat. 15140122), and 2.5% Matrigel (Corning Inc., cat. 354248) for the first three passages. The 857933-349-R-J2-PDC line was cultured in 6C/Colon 1B media, which includes advanced DMEM/F-12 (Thermo Fisher Scientific, cat. 12634028), 10 mM HEPES (Thermo Fisher Scientific, cat. 15630080), 1X GlutaMAX supplement (Thermo Fisher Scientific, cat. 35050061), 0.1 mg/mL primocin (InvivoGen, cat. ant-pm-2), 10% defined fetal bovine serum, heat inactivated (HyClone Laboratories Inc., cat. SH30070.03HI), 50% L-WRN conditioned media (ATCC, cat. CRL-3276), 1.25 mM N-Acetyl-L-cysteine (Sigma-Aldrich, cat. A9165), 10 mM nicotinamide (Sigma-Aldrich, cat. N0636), 1X B-27 supplement (Thermo Fisher Scientific, cat. 17504044), 1X N-2 supplement (Thermo Fisher Scientific, cat. 17502048), 10 microM Y-27632 dihydrochloride (Tocris Bioscience, cat. 1254), and 50 ng/mL human EGF recombinant protein (Thermo Fisher Scientific, cat. PHG0311). The 485176-168-R4-J1-PDC line was cultured in Panc media, which includes all 6C/Colon 1B media components plus 100 ng/mL human FGF-10 (Thermo Fisher Scientific, cat. 100-26), 500 nM SB-431542 (Selleckchem, cat. S1067), and gastrin (Tocris, cat. 3006).
[…]

[1] = curve of first compound, second compound 0.0316 µM
[2] = curve of first compound, second compound 0.1 µM
[3] = curve of first compound, second compound 0.316 µM
[4] = curve of first compound, second compound 1 µM
[5] = curve of first compound, second compound 3.16 µM
[6] = curve of first compound, second compound 10 µM
[7] = second compound 0.0316 µM, first compound 0.0316 µM
[8] = second compound 0.0316 µM, first compound 0.1 µM
[9] = second compound 0.0316 µM, first compound 0.316 µM
[10] = second compound 0.0316 µM, first compound 1 µM
[11] = second compound 0.0316 µM, first compound 3.16 µM
[12] = second compound 0.0316 µM, first compound 10 µM
[13] = second compound 0.1 µM, first compound 0.0316 µM
[14] = second compound 0.1 µM, first compound 0.1 µM
[15] = second compound 0.1 µM, first compound 0.316 µM
[16] = second compound 0.1 µM, first compound 1 µM
[17] = second compound 0.1 µM, first compound 3.16 µM
[18] = second compound 0.1 µM, first compound 10 µM
[19] = second compound 0.316 µM, first compound 0.0316 µM
[20] = second compound 0.316 µM, first compound 0.1 µM
[21] = second compound 0.316 µM, first compound 0.316 µM
[22] = second compound 0.316 µM, first compound 1 µM
[23] = second compound 0.316 µM, first compound 3.16 µM
[24] = second compound 0.316 µM, first compound 10 µM
[25] = second compound 1 µM, first compound 0.0316 µM
[26] = second compound 1 µM, first compound 0.1 µM
[27] = second compound 1 µM, first compound 0.316 µM
[28] = second compound 1 µM, first compound 1 µM
[29] = second compound 1 µM, first compound 3.16 µM
[30] = second compound 1 µM, first compound 10 µM
[31] = second compound 3.16 µM, first compound 0.0316 µM
[32] = second compound 3.16 µM, first compound 0.1 µM
[33] = second compound 3.16 µM, first compound 0.316 µM
[34] = second compound 3.16 µM, first compound 1 µM
[35] = second compound 3.16 µM, first compound 3.16 µM
[36] = second compound 3.16 µM, first compound 10 µM
[37] = second compound 10 µM, first compound 0.0316 µM
[38] = second compound 10 µM, first compound 0.1 µM
[39] = second compound 10 µM, first compound 0.316 µM
[40] = second compound 10 µM, first compound 1 µM
[41] = second compound 10 µM, first compound 3.16 µM
[42] = second compound 10 µM, first compound 10 µM
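Further: spheroids exposed to the compounds for one week.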
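Wherever viability, T/C is given: percent of tumor spheroid viability relative to DMSO vehicle control wells.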

Compound: O=C(c1cc(Cc2n[nH]c(=O)c3ccccc23)ccc1F)N1CCN(C(=O)C2CC2)CC1 + Cc1[nH]c2ccc(F)cc2c1-c1nc2c3cccnc3c3ncccc3c2[nH]1
IC50 [1]: 8.27 µM
IC50 [2]: 9.46 µM
IC50 [3]: 8.46 µM
IC50 [4]: 5.09 µM
IC50 [5]: < 0.0316 µM
IC50 [6]: < 0.0316 µM
viability, T/C [7]: 105%
viability, T/C [8]: 96.3%
viability, T/C [9]: 124%
viability, T/C [10]: 139%
viability, T/C [11]: 134%
viability, T/C [12]: 36%
viability, T/C [13]: 98%
viability, T/C [14]: 103%
viability, T/C [15]: 119%
viability, T/C [16]: 137%
viability, T/C [17]: 146%
viability, T/C [18]: 46.4%
viability, T/C [19]: 94.3%
viability, T/C [20]: 99.2%
viability, T/C [21]: 112%
viability, T/C [22]: 150%
viability, T/C [23]: 131%
viability, T/C [24]: 38.7%
viability, T/C [25]: 75.2%
viability, T/C [26]: 74.4%
viability, T/C [27]: 82.4%
viability, T/C [28]: 101%
viability, T/C [29]: 70.5%
viability, T/C [30]: 21%
viability, T/C [31]: 13.8%
viability, T/C [32]: 13.9%
viability, T/C [33]: 16.7%
viability, T/C [34]: 14.9%
viability, T/C [35]: 6.15%
viability, T/C [36]: 2.65%
viability, T/C [37]: 2.34%
viability, T/C [38]: 2.08%
viability, T/C [39]: 3.14%
viability, T/C [40]: 1.59%
viability, T/C [41]: 1.27%
viability, T/C [42]: 1.27%

IC50 (curve of compound): > 0.316 µM and 0.246 µM
Compound: Cn1ncnc1[C@H]1c2n[nH]c(=O)c3cc(F)cc(c23)N[C@@H]1c1ccc(F)cc1
viability, T/C (compound 0.000999 µM): 100% and 96.8% and 93.9%
viability, T/C (compound 0.00316 µM): 93.9% and 87.6% and 102%
viability, T/C (compound 0.00999 µM): 80.8% and 90.4% and 90%
viability, T/C (compound 0.0316 µM): 81.4% and 84.2% and 82.3%
viability, T/C (compound 0.0999 µM): 75.4% and 66.1% and 67.8%
viability, T/C (compound 0.316 µM): 50.8% and 45.5% and 53.5%

Compound: CCCS(=O)(=O)Nc1ccc(F)c(C(=O)c2c[nH]c3ncc(-c4ccc(Cl)cc4)cc23)c1F
viability, T/C (compound 0.0316 µM): 115% (2×) and 92.5%
viability, T/C (compound 0.1 µM): 103% and 94.5% and 95.3%
viability, T/C (compound 0.316 µM): 68.9% and 106% and 108%
viability, T/C (compound 1 µM): 8.17% and 109% and 104%

Compound: O=c1[nH]cc(F)c(=O)[nH]1 + CN(C)c1ccc(Nc2c3ccc(NC(=O)CCN4CCCC4)cc3nc3cc(NC(=O)CCN4CCCC4)ccc23)cc1
IC50 [1]: > 10 µM
IC50 [2]: > 10 µM
IC50 [3]: > 10 µM
IC50 [4]: > 10 µM
IC50 [5]: > 10 µM
IC50 [6]: < 0.0316 µM
viability, T/C [7]: 100%
viability, T/C [8]: 92.7%
viability, T/C [9]: 91.6%
viability, T/C [10]: 98.8%
viability, T/C [11]: 58.7%
viability, T/C [12]: 64.3%
viability, T/C [13]: 101%
viability, T/C [14]: 108%
viability, T/C [15]: 117%
viability, T/C [16]: 96.4%
viability, T/C [17]: 59.5%
viability, T/C [18]: 60.1%
viability, T/C [19]: 105%
viability, T/C [20]: 98.7%
viability, T/C [21]: 120%
viability, T/C [22]: 102%
viability, T/C [23]: 62.3%
viability, T/C [24]: 60%
viability, T/C [25]: 96.4%
viability, T/C [26]: 102%
viability, T/C [27]: 97.5%
viability, T/C [28]: 84%
viability, T/C [29]: 55.8%
viability, T/C [30]: 58.4%
viability, T/C [31]: 90.9%
viability, T/C [32]: 96.9%
viability, T/C [33]: 104%
viability, T/C [34]: 77.9%
viability, T/C [35]: 64.3%
viability, T/C [36]: 59.1%
viability, T/C [37]: 24.8%
viability, T/C [38]: 20.1%
viability, T/C [39]: 19.2%
viability, T/C [40]: 25.5%
viability, T/C [41]: 23.2%
viability, T/C [42]: 18%
